Common to all, as to type: in vivo, mouse (C57BL/6)
Assay [1] deals with MOG-induced EAE. Kind of assay: Example 1A: laquinimod alone or in combination with DMF in MOG-induced EAE (present tense).
Assay [2] deals with MOG induced EAE. Put plainly: Example 1C: suboptimal dose of laquinimod combined with MEF or EMF in MOG induced EAE. The conditions noted are these: for Group Mean Score / Incidence % inhibition / Incidence Total / Mean Disease Duration / Mean Maximal Score / Mean Onset days / Mortality Total % / GMS Inhibition % / MMS Inhibition %: study interrupted on day 21; for GMS Inhibition % / MMS Inhibition %: vs vehicle.

In assay [3] the test system is MOG induced EAE. Put plainly: Example 1B: laquinimod in combination with DMF in MOG-induced EAE. To be noted: Day 1 to 30; for % Inhibition 2: according to MMS; for % Inhibition 2 / % Inhibition 1 / % Inhibition 3: vs vehicle; for % Inhibition 1: according to incidence; for % Inhibition 3: activity according to GMS; for GMS value: group mean score; for MMS value: mean maximal score.

[4] abbreviates: laquinimod 5 mg/kg/day gavage (AM) from Day 1.
Where [5] appears, read: laquinimod 25 mg/kg/day gavage (AM) from Day 1, positive control.
Setting [6] is: laquinimod 5 mg/kg/day gavage qd.
Setting [7] is: laquinimod 10 mg/kg/day gavage qd.
Where [8] appears, read: laquinimod 25 mg/kg/day gavage qd.
[9] abbreviates: DMF 45 mg/kg gavage bid (90 mg/kg/day).
Where [10] appears, read: EMF 135 mg/kg gavage twice a day from Day 1.
The mark [11] stands for this setting: EMF 135 mg/kg gavage twice a day from Day 1, listed as EFM.
Setting [12] is: MEF 90 mg/kg gavage twice a day from Day 1.

Structures can show the parent of a compound that is named as a salt.

On to `CCN(C(=O)c1c(O)c2c(Cl)cccc2n(C)c1=O)c1ccccc1` [Laquinimod, laquinimod], for which, in assay [1] (laquinimod 0.06 mg/kg oral QD alone), the “inhibition of disease severity” value is reported as “moderately effective”. In assay [2] (setting [4]), the “Group Mean Score” value was found to be 0.64 ± 0.2, the Incidence % inhibition was determined as 46.7%, the “Incidence Total” value was 8/15 and the “Mean Disease Duration” value is reported as 4.0 ± 1.2 days. Further, in assay [2] (setting [4]), the “Mean Maximal Score” value is given as 1.3 ± 0.4, the “Mean Onset days” value was determined as 17.3 ± 1.24 days, the “Mortality Total %” value is recorded as 0% and the “GMS Inhibition %” value is reported as 34.0%. The “MMS Inhibition %” value in assay [2] (setting [4]) turned out to be 31.6%. For the same compound, in assay [2] (setting [5]), the Incidence % inhibition came to 93.3%, the “Incidence Total” value is given as 1/15, the “Mean Disease Duration” value stood at 0.3 ± 0.3 days and the “Mean Maximal Score” value amounted to 0.1 ± 0.06. Further, in assay [2] (setting [5]), the “Mean Onset days” value was found to be 21.5 ± 0.5 days, the “Mortality Total %” value is 0%, the “GMS Inhibition %” value came to 97.9% and the “MMS Inhibition %” value worked out at 94.7%. The “EAE clinical signs (conclusion)” value in assay [2] (laquinimod at 25 mg/kg) is recorded as “significantly ameliorated EAE clinical signs”. In addition, the “efficacy in MOG-induced EAE (conclusion)” value in assay [2] (laquinimod at 5 and 25 mg/kg) is listed as “dose-dependent efficacy”. For the same compound, in assay [3] (setting [6]), the “% Inhibition 2” value was determined as 40.0%, the “% Inhibition 1” value turned out to be 33.3%, the “% Inhibition 3” value was 61.9% and the GMS value was determined as 0.8 ± 0.7. In assay [3] (setting [6]), the Incidence is listed as 10/15, the “Mean Duration” value was determined as 8.0 ± 6.2 days, the “Mean Onset” value amounted to 22.7 ± 6.4 days and the Mortality is reported as 0/15. Also, the MMS value in assay [3] (setting [6]) was found to be 2.1 ± 1.7. In assay [3] (setting [7]), the “% Inhibition 2” value amounted to 82.9%, the “% Inhibition 1” value is recorded as 73.3%, the “% Inhibition 3” value is recorded as 90.5% and the GMS value was determined as 0.2 ± 0.5. Further, in assay [3] (setting [7]), the Incidence is on record as 4/15, the “Mean Duration” value is 1.8 ± 3.7 days, the “Mean Onset” value is given as 28.9 ± 3.8 days and the Mortality is 0/15. Further, the MMS value in assay [3] (setting [7]) was 0.6 ± 0.2. In assay [3] (setting [8]), the “% Inhibition 2” value is reported as 100.0%, the “% Inhibition 1” value amounted to 100.0%, the “% Inhibition 3” value worked out at 100% and the GMS value came to 0.0 ± 0.0. In assay [3] (setting [8]), the Incidence was 0/15, the “Mean Duration” value is given as 0.0 ± 0.0 days, the “Mean Onset” value was determined as 0.0 ± 0.0 days and the Mortality is reported as 0/15. Further, in assay [3] (setting [8]), the MMS value is recorded as 0.0 ± 0.0.
In the case of `COC(=O)/C=C/C(=O)OC` [DMF, dimethyl fumarate], the “inhibition of disease severity” value in assay [1] (DMF 25 mg/kg oral QD alone) was “moderately effective”. In assay [3] (setting [9]), the Incidence is 13/15, the “Mean Duration” value was 13.4 ± 6.2 days, the “Mean Onset” value came to 17.1 ± 6.3 days and the Mortality is listed as 0/15. In addition, in assay [3] (setting [9]), the “% Inhibition 2” value worked out at 25.7%, the “% Inhibition 1” value is 13.3%, the “% Inhibition 3” value was determined as 33.3% and the GMS value is 1.4 ± 0.9. The MMS value in assay [3] (setting [9]) stood at 2.6 ± 1.4.
Take `CCOC(=O)/C=C/C(=O)OC` [EMF, ethyl methyl fumarate]: in assay [2] (setting [10]), the “Group Mean Score” value amounted to 0.51 ± 0.2, the Incidence % inhibition was 46.6%, the “Incidence Total” value is listed as 8/15 and the “Mean Disease Duration” value is 3.3 ± 0.9 days. Besides, in assay [2] (setting [10]), the “Mean Maximal Score” value is 1.2 ± 0.38, the “Mean Onset days” value came to 18.4 ± 1.0 days, the “Mortality Total %” value came out at 0% and the “GMS Inhibition %” value turned out to be 47.7%. In addition, the “MMS Inhibition %” value in assay [2] (setting [10]) is listed as 36.8%. Moreover, in assay [2] (setting [11]), the Incidence % inhibition was 46.7% and the “GMS Inhibition %” value was 47.4%. The “effectiveness in MOG induced EAE (conclusion)” value in assay [2] (EMF at 135 mg/kg BID alone) is listed as “highly effective”.
As to `CCOC(=O)/C=C/C(=O)O` [MEF, monoethyl fumarate], in assay [2] (setting [12]), the “Group Mean Score” value was 1.23 ± 0.2, the Incidence % inhibition amounted to 20%, the “Incidence Total” value was 12/15 and the “Mean Disease Duration” value amounted to 7.1 ± 1.0 days. In addition, in assay [2] (setting [12]), the “Mean Maximal Score” value turned out to be 2.3 ± 0.38, the “Mean Onset days” value is recorded as 14.7 ± 1.0 days, the “Mortality Total %” value was 0% and the “GMS Inhibition %” value was found to be 26.8%. Also, the “MMS Inhibition %” value in assay [2] (setting [12]) was −21.1%. Moreover, in assay [2] (MEF at 90 mg/kg), the “alleviation of EAE disease signs (conclusion)” value is “not effective”. The “GMS Inhibition %” value in assay [2] (MEF 90 mg/kg gavage twice a day from Day 1, listed as Mono EF) was −26.8%.

The values are drawn from patent US20160271094A1, “Laquinimod Combination Therapy For Treatment Of Multiple Sclerosis” (priority 2013, published 2016).
